The text below walks through data of patent US20260070917A1, “CYCLIN DEPENDENT KINASE DEGRADERS AND METHODS OF USE THEREOF” (Differentiated Therapeutics Inc, priority 2023, published 2026).

Common to all, as to format: cell-based
In experiment [1] the target is T1, CDK2 (Homo sapiens, UniProt P24941).
T1 construct: host or cells: HEK293-CDK2-Hibit
The experiment in a line: HiBit Assay Protocol for CDK2 (HIBIT protein quantification, degradation). Conditions: HEK293-CDK2-Hibit cells, compound treatment for 6 hours; for DC50: ABS DC50. Put shortly: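 DC50 comes from a fitted curve of remaining CDK2-HiBiT luminescence, referenced to DMSO-treated cells and medium-only wells. HEK293-CDK2-HiBiT cells, plated the previous night, received compounds in a 10-point, 3-fold series for 6 h before lysis with LgBiT-containing Nano-Glo HiBiT reagent.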

In experiment [2] the target is T2, CDK9 (Homo sapiens, UniProt P50750).
T2 construct: host or cells: HEK293-CDK9-Hibit
T2 sequence (P50750 whole entry): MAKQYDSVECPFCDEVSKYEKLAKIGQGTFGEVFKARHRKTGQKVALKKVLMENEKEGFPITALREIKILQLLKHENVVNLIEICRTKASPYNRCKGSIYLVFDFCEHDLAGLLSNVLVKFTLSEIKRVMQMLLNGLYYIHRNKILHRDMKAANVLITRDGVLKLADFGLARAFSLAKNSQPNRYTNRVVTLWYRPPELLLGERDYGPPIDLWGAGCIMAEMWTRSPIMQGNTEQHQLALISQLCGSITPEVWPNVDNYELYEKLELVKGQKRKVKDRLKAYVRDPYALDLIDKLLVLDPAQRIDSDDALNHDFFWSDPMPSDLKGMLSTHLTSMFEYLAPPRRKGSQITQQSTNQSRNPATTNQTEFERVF
In words: HiBit Assay Protocol for CDK9 (HIBIT protein quantification, degradation). Conditions: HEK293-CDK9-Hibit cells, compound treatment for 6 hours, read-out: CDK9 HIBIT Protein Quantification Maximum. In outline: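 Degradation read-out: luminescence after lytic HiBiT/LgBiT detection in HEK293-CDK9-HiBiT cells exposed 6 h to 10-point, 3-fold compound dilutions. Signal scaled between 0.1% DMSO-treated cells and medium alone; DC50 fitted from the curve.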

For experiment [3], the target named is T3, CCNE1 (Homo sapiens, UniProt P24864).
T3 construct: host or cells: HEK293-CCNE1-Hibit
T3 sequence (P24864 whole entry): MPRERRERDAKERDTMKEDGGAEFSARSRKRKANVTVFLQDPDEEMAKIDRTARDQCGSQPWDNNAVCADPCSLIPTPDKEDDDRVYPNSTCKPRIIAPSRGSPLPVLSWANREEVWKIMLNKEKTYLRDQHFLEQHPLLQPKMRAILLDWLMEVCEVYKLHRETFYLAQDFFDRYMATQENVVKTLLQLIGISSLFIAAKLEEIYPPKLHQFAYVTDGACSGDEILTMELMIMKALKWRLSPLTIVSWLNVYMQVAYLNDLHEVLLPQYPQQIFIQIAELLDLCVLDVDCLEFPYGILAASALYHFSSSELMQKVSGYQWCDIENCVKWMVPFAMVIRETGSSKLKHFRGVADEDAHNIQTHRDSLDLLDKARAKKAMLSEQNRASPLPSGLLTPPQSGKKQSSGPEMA
The experiment in a line: HiBit Assay Protocol for CCNE1 (HIBIT protein quantification, degradation). The settings on record: HEK293-CCNE1-Hibit cells, compound treatment for 6 hours. Put shortly:
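Degradation readout: lytic Nano-Glo HiBiT luminescence after 6 h exposure of HEK293-CCNE1-HiBiT cells to 10-point, 3-fold serial dilutions. Signal was scaled between medium-only and DMSO-treated wells, and DC50 came from curve fits.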

Like-named read-outs stand apart in the source and are kept apart here.

With `Cn1nc(N2CCC(=O)NC2=O)c2ccc(C3CCN(Cc4cccc(S(=O)(=O)N5CCC(Nc6ncc7c(n6)N([C@@H]6CCC[C@@H](O)C6)C(=O)C76CC6)CC5)c4)C(C)(C)C3)cc21` (stereo partly drawn) [Compound 183, 1-[6-(1-{[3-(4-{7′-[(1R,3R)-3-Hydroxycyclohexyl]-6′-oxospiro[cyclopropane-1,5′-pyrrolo[2,3-d]pyrimidin]-2′-ylamino}piperidin-1-ylsulfonyl)phenyl]methyl}-2,2-dimethylpiperidin-4-yl)-1-methylindazol-3-yl]-1,3-diazinane-2,4-dione], in experiment [1], the “CDK2 HIBIT Protein Quantification Maximum” value stood at 67% and it took 2.84 nM to reach half-maximal degradation (DC50). In experiment [2] (6 h), the Dmax is 24%. For the same compound, in experiment [3], the “CCNE1 HIBIT Protein Quantification Maximum” value is reported as 43%.

Turning to `CC1CCCC1N1C(=O)C2(CC2)c2cnc(NC3CCN(S(=O)(=O)N4CC5(CN(CC6CCN(c7ccc8c(c7)n(C)c(=O)n8C7CCC(=O)NC7=O)CC6)C5)C4)CC3)nc21` (stereo not drawn) [Compound 144], in experiment [1], the “CDK2 HIBIT Protein Quantification Maximum” value is 75% and the DC50 worked out at 1.97 nM. Besides, the Dmax in experiment [2] (6 h) worked out at 49%. The “CCNE1 HIBIT Protein Quantification Maximum” value in experiment [3] was found to be 39%.

Regarding `CC(C)[C@@H]1CN([C@@H](C)c2cccc(S(=O)(=O)N3CC[C@H](Nc4ncc5c(n4)N([C@@H]4CCC[C@@H](O)C4)C(=O)C54CC4)[C@H](F)C3)c2)CCN1c1ccc2c(N3CCC(=O)NC3=O)nn(C)c2c1` [Compound 205], in experiment [1], the “CDK2 HIBIT Protein Quantification Maximum” value amounted to 88% and the DC50 was found to be 13.1 nM. For the same compound, in experiment [2] (6 h), the Dmax came out at 14%. Besides, the “CCNE1 HIBIT Protein Quantification Maximum” value in experiment [3] is 38%.

Take `Cn1nc(N2CCC(=O)NC2=O)c2ccc(C3CCN(Cc4cc(F)cc(S(=O)(=O)N5CCC(Nc6ncc7c(n6)N([C@@H]6CCC[C@@H](O)C6)C(=O)C76CC6)CC5)c4)CC3)cc21` [Compound 170, 1-[6-(1-{[3-Fluoro-5-(4-{7′-[(1R,3R)-3-hydroxycyclohexyl]-6′-oxospiro[cyclopropane-1,5′-pyrrolo[2,3-d]pyrimidin]-2′-ylamino}piperidin-1-ylsulfonyl)phenyl]methyl}piperidin-4-yl)-1-methylindazol-3-yl]-1,3-diazinane-2,4-dione]: in experiment [1], the “CDK2 HIBIT Protein Quantification Maximum” value turned out to be 75% and it took 3.63 nM to reach half-maximal degradation (DC50). Further, in experiment [2], the Dmax is 5%. The “CCNE1 HIBIT Protein Quantification Maximum” value in experiment [3] is listed as 46%.

For `CC(C)[C@H]1CN([C@@H](C)c2cccc(S(=O)(=O)N3CC[C@H](Nc4ncc5c(n4)N([C@@H]4CCC[C@@H](O)C4)C(=O)C54CC4)[C@H](F)C3)c2)CCN1c1ccc2c(N3CCC(=O)NC3=O)nn(C)c2c1` (single isomer, unassigned) [Compound 202], in experiment [1], the “CDK2 HIBIT Protein Quantification Maximum” value was 88% and the DC50 amounted to 10.9 nM. Moreover, the Dmax in experiment [2] (6 h) was found to be 20%. For the same compound, in experiment [3], the “CCNE1 HIBIT Protein Quantification Maximum” value was 37%.

In the case of `C[C@@H]1CN(c2ccc3c(N4CCC(=O)NC4=O)nn(C)c3c2)CCN1[C@@H](C)c1cccc(S(=O)(=O)N2CC[C@H](Nc3ncc4c(n3)N([C@@H]3CCC[C@@H](O)C3)C(=O)C43CC3)[C@H](F)C2)c1` [Compound 192, 1-(6-((R)-4-((S)-1-(3-(((3R,4S)-3-Fluoro-4-((7′-((1R,3R)-3-hydroxycyclohexyl)-6′-oxo-6′,7′-dihydrospiro[cyclopropane-1,5′-pyrrolo[2,3-d]pyrimidin]-2′-yl)amino)piperidin-1-yl)sulfonyl)phenyl)ethyl)-3-methylpiperazin-1-yl)-1-methyl-1H-indazol-3-yl)dihydropyrimidine-2,4(1H,3H)-dione], in experiment [1], the “CDK2 HIBIT Protein Quantification Maximum” value is given as 92% and it took 4.67 nM to reach half-maximal degradation (DC50). Further, in experiment [2] (6 h), the Dmax amounted to 16%. Moreover, the “CCNE1 HIBIT Protein Quantification Maximum” value in experiment [3] stood at 45%.

As to `CC1CCCC1N1C(=O)C2(CC2)c2cnc(NC3CCN(S(=O)(=O)N4CCN(CC5CCN(c6cccc7c6n(C)c(=O)n7C6CCC(=O)NC6=O)CC5)CC4)CC3)nc21` (stereo not drawn) [Compound 145], in experiment [1], the “CDK2 HIBIT Protein Quantification Maximum” value was 79% and the DC50 was 4.08 nM. Besides, in experiment [2] (6 h), the Dmax is 14%. For the same compound, in experiment [3], the “CCNE1 HIBIT Protein Quantification Maximum” value is reported as 25%.

Turning to `CC1CCCC1N1C(=O)C2(CC2)c2cnc(NC3CCN(S(=O)(=O)N4CC5C4CCN5C(=O)CCCc4ccc5c(c4)n(C)c(=O)n5C4CCC(=O)NC4=O)CC3)nc21` (stereo not drawn) [Compound 69], the “CDK2 HIBIT Protein Quantification Maximum” value in experiment [1] is 13%. Moreover, the Dmax in experiment [2] (6 h) was determined as 8%. For the same compound, in experiment [3], the “CCNE1 HIBIT Protein Quantification Maximum” value is 8%.

As to `CC1CCCC1N1C(=O)C2(CC2)c2cnc(NC3CCN(S(=O)(=O)N4CCC5(CCN(C(=O)CCCCCCCCCc6ccc7c(c6)n(C)c(=O)n7C6CCC(=O)NC6=O)C5)C4)CC3)nc21` (stereo not drawn) [Compound 89], the “CDK2 HIBIT Protein Quantification Maximum” value in experiment [1] stood at 50%. For the same compound, the Dmax in experiment [2] (6 h) was determined as 35%. Also, in experiment [3], the “CCNE1 HIBIT Protein Quantification Maximum” value amounted to 25%.

Turning to `CC1CCCC1N1C(=O)C2(CC2)c2cnc(NC3CCN(S(=O)(=O)N4CC5(CCCN(C(=O)CCCCCCCCCc6cccc7c6n(C)c(=O)n7C6CCC(=O)NC6=O)C5)C4)CC3)nc21` (stereo not drawn) [Compound 50], the “CDK2 HIBIT Protein Quantification Maximum” value in experiment [1] came out at 37%. The Dmax in experiment [2] (6 h) was determined as 17%. Besides, the “CCNE1 HIBIT Protein Quantification Maximum” value in experiment [3] amounted to 16%.

Take `Cn1nc(N2CCC(=O)NC2=O)c2ccc(C3CCN(Cc4cccc(S(=O)(=O)N5CCC(Nc6ncc7c(n6)N([C@H]6CCC[C@]6(C)O)C(=O)C76CC6)CC5)c4)CC3)cc21` [Compound 178]: in experiment [1], the “CDK2 HIBIT Protein Quantification Maximum” value turned out to be 75% and half-maximal degradation (DC50) was put at 1.8 nM. For the same compound, the Dmax in experiment [2] (6 h) is 23%. In addition, the “CCNE1 HIBIT Protein Quantification Maximum” value in experiment [3] was 38%.

On to `CC1CCCC1N1C(=O)C2(CC2)c2cnc(NC3CCN(S(=O)(=O)N4CCCN(C(=O)CCCc5ccc6c(c5)n(C)c(=O)n6C5CCC(=O)NC5=O)CC4)CC3)nc21` (stereo not drawn) [Compound 72], for which the “CDK2 HIBIT Protein Quantification Maximum” value in experiment [1] is 25%. In experiment [2] (6 h), the Dmax is 42%. For the same compound, the “CCNE1 HIBIT Protein Quantification Maximum” value in experiment [3] is recorded as 8%.

As to `Cn1c(=O)n(C2CCC(=O)NC2=O)c2ccc(N3CCN(Cc4cccc(S(=O)(=O)N5CCC(Nc6ncc7c(n6)N([C@@H]6CCC[C@@H](O)C6)C(=O)C76CC6)CC5)c4)CC3)cc21` (stereo partly drawn) [Compound 179, 3-[5-(4-{[3-(4-{7′-[(1R,3R)-3-Hydroxycyclohexyl]-6′-oxospiro[cyclopropane-1,5′-pyrrolo[2,3-d]pyrimidin]-2′-ylamino}piperidin-1-ylsulfonyl)phenyl]methyl}piperazin-1-yl)-3-methyl-2-oxo-1,3-benzodiazol-1-yl]piperidine-2,6-dione], in experiment [1], the “CDK2 HIBIT Protein Quantification Maximum” value is 78% and half-maximal degradation (DC50) was put at 7.82 nM. Besides, the Dmax in experiment [2] (6 h) came out at 15%. Moreover, in experiment [3], the “CCNE1 HIBIT Protein Quantification Maximum” value was 20%.

Turning to `CC1CCCC1N1C(=O)C2(CC2)c2cnc(NC3CCN(S(=O)(=O)N4CC5(CCCCN5C(=O)CCCCCc5cccc6c5n(C)c(=O)n6C5CCC(=O)NC5=O)C4)CC3)nc21` (stereo not drawn) [Compound 37], in experiment [1], the “CDK2 HIBIT Protein Quantification Maximum” value is reported as 40%. Also, the Dmax in experiment [2] (6 h) came out at 0%. The “CCNE1 HIBIT Protein Quantification Maximum” value in experiment [3] came to 30%.

With `CC1CCCC1N1C(=O)C2(CC2)c2cnc(NC3CCN(S(=O)(=O)N4CCCC45CCN(C(=O)CCCCCc4cccc6c4n(C)c(=O)n6C4CCC(=O)NC4=O)C5)CC3)nc21` (stereo not drawn) [Compound 35], the “CDK2 HIBIT Protein Quantification Maximum” value in experiment [1] came out at 34%. For the same compound, the Dmax in experiment [2] (6 h) came to 17%. Also, the “CCNE1 HIBIT Protein Quantification Maximum” value in experiment [3] amounted to 21%.
